US20260199282A1, “METHODS AND COMPOSITIONS FOR IMPROVING DRIVING PERFORMANCE” (priority 2022, published 2026)
Where “and” joins values, the source holds several entries; their conditions need not be identical. Equal values may be shown once.

How the values were obtained:
[1] = test system: participants with narcolepsy; test: Safety / adverse events, narcolepsy study; format: in vivo, human
Description: Safety assessments included a physical examination, ECG, clinical laboratory tests, and assessment of adverse events (AEs).
Demographic, narcolepsy history, and safety data were summarized for the safety population, which included all participants who received ≥1 dose of study drug. No formal statistical testing was performed on these parameters.

[2] = test system: participants with narcolepsy; test: Toronto Hospital Alertness Test (THAT), narcolepsy study; format: in vivo, human; details: end of 7-day treatment period
Description: The Toronto Hospital Alertness Test (THAT) is a 10-item self-report questionnaire that measures perceived alertness over the previous week; scores can range from 0 to 50, with higher scores indicating greater alertness (Shapiro et al., 2006). This assessment was administered at the end of each 7-day treatment period to evaluate participants' perceived alertness throughout the treatment period.
Additional secondary efficacy measures (standard deviation of speed, number of lane drifts, and THAT scores) were analyzed using a similar ANOVA method as described for SDLP. No multiplicity adjustments were made in the efficacy analyses for multiple endpoints, and all p values are therefore nominal.

[3] = test system: subjects with EDS due to OSA; design: species or system human; details: in vivo
[4] = test system: subjects with EDS due to OSA; test: Standardized on-road highway driving test, OSA study; format: in vivo, human
Description: This was a randomized, double-blind, placebo-controlled, crossover, on-road driving study in subjects with EDS due to OSA. A total of 40 adult subjects were planned for enrollment, and 34 subjects were randomized. Subjects received either solriamfetol (150 mg QD for 3 days, followed by 300 mg QD for 4 days) or matching placebo for 7 days, and then crossed over to receive the other treatment regimen for 7 days (FIG. 4). […] The PVT was administered predose and prior to each driving test. Actigraphy and a sleep diary were used to assess daily sleep patterns. The Toronto Hospital Alertness Test (THAT) was administered at baseline and at the end of each treatment period. A Follow-up Visit was performed approximately 7 days after the final dose of study drug. Subjects were recruited at clinical sites. Eligibility was determined through screening procedures (including a Maintenance of Wakefulness Test [MWT]) at the clinical sites after the washout of prohibited medications, and a practice driving test at the driving test site. A total of 40 adult subjects were planned for enrollment; 34 subjects were randomized and analyzed for safety and efficacy.
Assessments to determine driving performance included: standard deviation of lateral position (SDLP; Verster and Roth 2011; Raemakers 2017), standard deviation of speed (SDS), and number of driving lapses (also known as lane drift, defined as deviations>100 cm from the mean lateral position and from the absolute lateral position for 8 seconds; Vinckenbosch 2020). Driving performance was assessed using a standardized on-road driving test on Day 7 (Visit 4) and on Day 14 (Visit 5). A practice driving test was performed during the screening period to familiarize the subject with the vehicle and test scenario, assess if the subject could adequately operate the manual transmission vehicle, and determine if any safety concerns existed that excluded the subject from participating in the study.
During each drive, subjects operated a specially instrumented vehicle for approximately 1 hour over a 100 km (61 mile) primary highway circuit. During each driving test, each subject was accompanied by a licensed driving instructor who had access to dual controls (i.e., brakes, clutch, and accelerator). The subject or instructor could stop the test if either considered it unsafe to continue. The subject was instructed to drive with a steady lateral position between the delineated boundaries of the slower (right) traffic lane, while maintaining a constant speed of
95 km/h (58 mph). Subjects could deviate from these instructions only to pass a slower vehicle, to respond to a slower speed in traffic ahead of him/her and to leave and re-enter the highway at the turnaround point. During the drive, the vehicle's speed and lateral distance to the left lane line were continuously recorded and captured on an onboard computer disk file. Subjects were transported to and from the driving circuit on each test day.
The primary analysis was based on the mITT population. The primary outcome measure of mean change in SDLP was analyzed using a repeated mixed effect analysis of variance (ANOVA) model. The model included treatment (solriamfetol and placebo), driving performance test (2 hours postdose and 6 hours postdose), treatment period, treatment sequence, and treatment by driving performance test interaction as fixed effects and subject as a random effect. The 2-sided 95% confidence intervals of solriamfetol-placebo changes for SDLP based on the repeated mixed effect ANOVA model was constructed for each driving performance test.
Individual changes (solriamfetol minus placebo) in driving performance were measured by SDLP at 2 hours and 6 hours postdose. The Maximum McNemar symmetry analyses (Laska et al. 2012) were used to detect an asymmetry in the distribution of the change in driving performance at 2 hours and 6 hours post-dose. […]

[5] = test system: participants with narcolepsy; design: species or system human; details: in vivo
[6] = test system: participants with narcolepsy; details: 12 weeks; 75 to 300 mg/day; cited from earlier work
[7] = 2 hours postdose, mITT, primary analysis, listed as JZP-110
[8] = 2 hours postdose, sequence JZP-110/Placebo, mITT
[9] = 2 hours postdose, sequence Placebo/JZP-110, mITT
[10] = 6 hours postdose, sequence JZP-110/Placebo, mITT
[11] = 6 hours postdose, sequence Placebo/JZP-110, mITT

For NC(=O)OC[C@H](N)Cc1ccccc1 [Solriamfetol, (R)-2-amino-3-phenylpropyl carbamate], the “serious or fatal TEAEs” value ([1]; in vivo) was “no serious or fatal TEAEs”, the “participants experiencing a TEAE, n (%)” value ([1]; while on solriamfetol) was 17 (74%) and the “discontinuation due to AEs” value ([1]; while taking solriamfetol) was “No participant discontinued”. The “THAT score, LS mean (SE)” value [2] was 34.0 (1.4), the “THAT score, LS mean difference solriamfetol vs placebo” value [2] was 7.1 and the “PVT errors, LS mean (SE)” value [3] was 1.24 (0.58) n/trial and 1.84 (0.58) n/trial. The “PVT inverse reaction time, LS mean (SE)” value [3] was 3.53 (0.04) 1/ms and 3.64 (0.04) 1/ms and 3.71 (0.04) 1/ms, the “PVT lapses, LS mean (SE)” value [3] was 3.82 (0.90) n/trial and 3.02 (0.90) n/trial and 3.98 (0.90) n/trial and the “Maximum McNemar test, distribution of change in driving performance” value ([4]; 2 hours and 6 hours post-dose, mITT) was “did not show asymmetry”. The “driving lapses, LS mean difference solriamfetol vs placebo” value ([4]; 2 hours postdose) was −1.128 lapses, the “standard deviation of speed (SDS), LS mean difference” value ([4]; 2 hours postdose) was 0.068 km/h and the “SDLP, mean (SD), observed” value ([4]; 2 hours postdose, day 7, 300 mg/day, mITT) was 18.83 (3.690) cm. The “SDLP, mean (SD) difference (JZP-110 − Placebo)” value ([4]; 2 hours postdose, mITT) was −1.11 (2.520) cm, the “SDLP, median difference (JZP-110 − Placebo)” value ([4]; 2 hours postdose, mITT) was −0.78 cm and the “SDLP, median, observed” value ([4]; 2 hours postdose, mITT) was 18.39 cm. The “SDLP, LS mean (SE)” value ([4]; 2 hours postdose, mITT, primary analysis) was 18.83 cm, the “SDLP, LS mean (SE)” value [4, 7] was 18.83 (0.627) cm and the “SDLP, LS mean difference (JZP-110 − Placebo)” value [4, 7] was −1.084 cm. For the same molecule, the “SDLP, mean (SD)” value [4, 8] was 18.58 (3.831) cm, the “SDLP, mean difference JZP-110 vs placebo” value [4, 8] was −0.26 cm and the “SDLP, median” value [4, 8] was 17.98 cm. For the same molecule, the “SDLP, median difference JZP-110 vs placebo” value [4, 8] was −0.18 cm, the “SDLP, mean difference JZP-110 vs placebo” value [4, 9] was −1.91 cm and the “SDLP, median” value [4, 9] was 20.00 cm. For the same molecule, the “SDLP, median difference JZP-110 vs placebo” value [4, 9] was −2.46 cm, the “SDLP, mean (SD)” value ([4]; 2 hours postdose, sequence Placebo/JZP-110, mITT, listed as JZP-110) was 19.08 (3.643) cm and the “SDLP, mean (SD)” value ([4]; 2 hours postdose, sequence Placebo/JZP-110, mITT, listed as solriamfetol) was 19.08 cm. The “driving lapses, LS mean difference solriamfetol vs placebo” value ([4]; 6 hours postdose) was 0.050 lapses, the “standard deviation of speed (SDS), LS mean difference” value ([4]; 6 hours postdose) was −0.109 km/h and the “SDLP, LS mean difference, sensitivity analysis” value ([4]; 6 hours postdose, PP population) was −1.037 cm. For the same molecule, the “SDLP, LS mean (SE)” value ([4]; 6 hours postdose, mITT) was 19.24 (0.631) cm, the “SDLP, LS mean difference (JZP-110 − Placebo)” value ([4]; 6 hours postdose, mITT) was −0.804 cm and the “SDLP, mean (SD)” value [4, 10] was 19.23 (3.224) cm. For the same molecule, the “SDLP, mean difference JZP-110 vs placebo” value [4, 10] was 0.20 cm, the “SDLP, median” value [4, 10] was 18.92 cm and the “SDLP, median difference JZP-110 vs placebo” value [4, 10] was 0.43 cm. The “SDLP, mean difference JZP-110 vs placebo” value [4, 11] was −1.91 cm, the “SDLP, median” value [4, 11] was 19.24 cm and the “SDLP, median difference JZP-110 vs placebo” value [4, 11] was −1.33 cm. For the same molecule, the “SDLP, mean (SD)” value ([4]; 6 hours postdose, sequence Placebo/JZP-110, mITT, listed as JZP-110) was 19.23 (3.593) cm, the “SDLP, mean (SD)” value ([4]; 6 hours postdose, sequence Placebo/JZP-110, mITT, listed as solriamfetol) was 19.23 cm and the “SDLP, difference in median values between the 2 treatments (solriamfetol-placebo)” value ([4]; placebo as initial treatment, both time points (2 and 6 hours postdose)) was −1.91 cm. The “subjects who failed to complete the driving test” value ([4]; solriamfetol condition) was 3 subjects, the “single McNemar test: proportion improved drivers versus impaired” value ([4]; threshold of 1.0 cm, 2 h post dose) was 29.4% and the “PVT errors, LS mean (SE)” value [5] was 1.11 (0.42) n/trial and 1.39 (0.42) n/trial and 1.34 (0.32) n/trial. For the same molecule, the “PVT inverse reaction time, LS mean (SE)” value [5] was 3.41 (0.07) 1/ms and 3.80 (0.07) 1/ms and 3.72 (0.07) 1/ms, the “PVT lapses, LS mean (SE)” value [5] was 6.63 (1.61) n/trial and 3.35 (1.61) n/trial and 4.52 (1.61) n/trial and the “PVT mean reaction time, LS mean (SE)” value [5] was 582 (148.4) ms and 317 (148.4) ms and 319 (148.4) ms. The “Maintenance of Wakefulness Test, treatment difference from placebo (least squares mean)” value [6] was 2.6 to 10.1 min.
